Data: US5086047A, “Novel steroids” (Roussel Uclaf, Department des Brevets, priority 1989, dated 1992)
Where two headings read alike, the source gives them in different places.

Assays:
[1] = molecular target: T1, aromatase (cytochrome P450 aromatase) (Homo sapiens, UniProt P11511); experiment: Aromatase inhibition in vitro, human placental microsomes, tritiated water release from 1β,2β-(H^3)-Androstenedione; format: biochemical
T1 construct: This supernatant was then subjected to an ultra-centrifugation stage (90 minutes, 150,000 g) to obtain the microsomal deposit; from tissue; host or cells: human placenta, microsomal fraction
T1 sequence (P11511 1-503): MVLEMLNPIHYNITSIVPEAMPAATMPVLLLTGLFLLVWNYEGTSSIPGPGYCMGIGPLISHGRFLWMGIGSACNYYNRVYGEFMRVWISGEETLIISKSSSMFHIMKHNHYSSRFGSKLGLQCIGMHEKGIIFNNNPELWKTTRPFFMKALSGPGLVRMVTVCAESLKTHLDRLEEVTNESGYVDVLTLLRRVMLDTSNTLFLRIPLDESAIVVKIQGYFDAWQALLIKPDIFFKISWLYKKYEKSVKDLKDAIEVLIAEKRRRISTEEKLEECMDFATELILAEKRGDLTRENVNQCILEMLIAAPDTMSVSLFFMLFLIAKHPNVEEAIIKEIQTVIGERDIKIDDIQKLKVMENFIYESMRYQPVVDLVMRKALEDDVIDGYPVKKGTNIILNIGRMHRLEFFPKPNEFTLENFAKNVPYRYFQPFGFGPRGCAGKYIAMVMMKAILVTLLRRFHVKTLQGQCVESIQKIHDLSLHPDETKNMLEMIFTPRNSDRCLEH
Description: Inhibition dependent on the concentration (measurement of the IC50 =concentration of the inhibitor necessary to reduce the enzymatic activity by 50%).
Human placentas were used which were washed one hour at most after delivery, perfused with physiological serum (5 liters) via the umbilical vein and then deep-frozen at -40° C.
The placentas were thawed at 4° C. and then homogenized (1:3) in a 10 mM phosphate buffer, pH=7.0 containing 100 millimoles of potassium chloride (KCl), 10 millimoles of dithiothreitol (DTT), 10 millimoles of ethylenediamine-tetraacetic acid (EDTA), 40 millimoles of nicotinamide and 250 millimoles of sucrose. The homogenates were then subjected to different phases of centrifugation until the "9000 g" supernatant was obtained (corresponding to cytosol and to endoplasmic reticulum). This supernatant was then subjected to an ultra-centrifugation stage (90 minutes, 150,000 g) to obtain the microsomal deposit. The microsomes were then resuspended in a 50 mM phosphate buffer, pH=7.4, containing 100 millimoles KCl, 1 millimole EDTA, 1 millimole DTT and glycerol (10%). The microsomal suspension was aliquoted and the fractions deep-frozen at the temperature of liquid nitrogen. The concentration of proteins in the microsomal suspension was determined by the BRADFORD method (BRADFORD., Anal. Biochem., Vol. 72, (1976) 248).
To 960 microliters of phosphate buffer (50 millimoles, pH=7.2) 2.5 millimoles glucose-6-phosphate, and containing 0.16 international units of glucose-6-phosphate dehydrogenase (G-6-PDH), the following were added in this order:
1) -10 microliters of inhibitor solubilized in dimethyl-sulfoxide (DMSO) to give final concentrations from 10^-5 M to 10^-10 M.
2) -10 microliters of substrate which was 500 nM Androstenedione solubilized in ethanol and containing 1β,- 2β-(H^3)-Androstenedione in a known isotopic dilution (approx. 200,000 disintegrations per minute).
3) 10 microliters of microsomal suspension equivalent to 25 micrograms of proteins per test.
The enzymatic reaction was then very rapidly initiated by the addition of 10 microliters of reduced nicotinamide adenine dinucleotide phosphate (NADPH) solubilized in water. After stirring, each test was incubated at 37° C. for 10 minutes. The reaction was then stopped by the addition of chloroform (4 ml).
After vigorous stirring of the tubes, they were decanted and centrifuged at 4° C. for 10 minutes at a speed of 3000 r.p.m. (rotations per minute), that is 600 X g. After centrifuging, and for each tube, 100 microliters of supernatant was removed and counted in the presence of a scintillating liquid. This method was derived from the procedures described by Reed et al, (J. Biol. Chem., Vol. 251, (1976), p. 1625) and Thompson et al, (J. Biol. Chem., Vol. 249, (1974), p. 5364). The enzymatic activity (aromatase) was proportional to the percentage of tritium salted out in the form of tritiated water (H^3 20) in the course of the reaction. The inhibition obtained for each concentration of each inhibiting product of the invention was calculated as a percentage of the controls (arbitrary 100%, obtained in the absence of any inhibitor). The CI50 was equal to the concentration of inhibitor necessary to decrease the enzymatic activity by 50% and the values of the CI50 's obtained for the inhibiting products of the invention are as follows: […]

seric estradiol = experiment: Amount of estradiol circulating in rats induced with P.M.S.G.; format: in vivo, rat; conditions: female rats, PMSG 100 I.U., ** p<0.01
Description: I-AMOUNT OF ESTRADIOL CIRCULATING IN RATS INDUCED WITH P.M.S.G.
(Pregnant Mare Serum Gonadotrophine)
Female rats weighing 150 g were induced by an injection of P.M.S.G. (100 I.U./rat/sc). After 90 hours, the animals were treated with the product under test (sc or po) and a blood sample was taken before and after treatment to measure the amount of seric estradiol.
DO, -90 h: injection of 100 I.U. of PMSG/rat.
DO, 0 h: sample of blood from […] then treatment with the product under test.
DO, +2 h: sample of blood.
DO, +6 h: killing of animals and collection of blood.
After coagulation and centrifugation of the blood, the serum was recovered which was dosed with estradiol (E2) by means of an RIA dosage kit (Baxter ER155). The results were expressed as a percentage variation relative to the amount of estradiol at time 0 (each animal is its own control). The statistical test used is the Mann-Whitney U-test (*:p<0.05; **:p<0.01).

[2] = human placental microsomes, Androstenedione 500 nM, 37° C., 10 minutes, read-out: CI50 (concentration of inhibitor necessary to decrease the enzymatic activity by 50%)
[3] = Parenterally (so in the source), 5 mg/kg

| SMILES | IC50 [1, 2] [nM] | IC50 [1] [nM] | percentage variation relative to the amount of estradiol at time 0, +2 h (seric estradiol; [3]) [percentage variation] | percentage variation relative to the amount of estradiol at time 0, +6 h (seric estradiol; [3]) [percentage variation] | percentage variation relative to the amount of estradiol at time 0, +2 h (seric estradiol; Subcutaneously, 1 mg/kg) [percentage variation] | percentage variation relative to the amount of estradiol at time 0, +6 h (seric estradiol; Subcutaneously, 1 mg/kg) [percentage variation] |
| --- | --- | --- | --- | --- | --- | --- |
| CCSCC[C@]12CCC(=O)C=C1CC[C@@H]1C2=CC[C@]2(C)C(=O)CC[C@@H]12 [Example 2] | 870 | – | – | – | – | – |
| CSCC[C@]12CCC(=O)C=C1CC[C@@H]1C2=CC[C@]2(C)C(=O)CC[C@@H]12 [Example 1, 10β-[2-(methylthio)-ethyl]-Δ^4,9(11) -estradiene-3,17-dione] | – | 20 | -51 | -51 | -55 | -68 |
| CSCC[C@]12CCC(=O)C=C1CC[C@@H]1C2=CC[C@]2(C)[C@@H](OC(=O)CCC(=O)O)CC[C@@H]12 [Example 27, Butanedioate of 10β-[2-(methylthio)-ethyl]-3-oxo-Δ^4,9(11) -estradien-17β-yl and of sodium] | – | – | -58 | -45 | -56 | -20 |
| CSCC[C@]12CC[C@H](O)C=C1CC[C@@H]1C2=CC[C@]2(C)[C@@H](O)CC[C@@H]12 [26 (3 beta OH), 10β-[2-(methylthio)-ethyl]-Δ^4,9(11) estradien-3β,17β-diol] | 165 | – | -63 | -64 | – | – |
| CSCC[C@]12CC[C@@H](O)C=C1CC[C@@H]1C2=CC[C@]2(C)[C@@H](O)CC[C@@H]12 [Example 26 (3 alpha OH)] | – | – | -53 | -53 | – | – |
| C#CSCC[C@]12CCC(=O)C=C1CC[C@@H]1C2=CC[C@]2(C)C(=O)CC[C@@H]12 [Example 21, 10β-[2-(ethynylthio)-ethyl]-Δ^4,9(11) -estradiene-3,17-dione] | 330 | – | – | – | – | – |
| CSCC[C@]12CCC(=O)C=C1CC[C@@H]1C2=CC[C@]2(C)[C@@H](O)CC[C@@H]12 [Example 13, 10β-[2-(methylthio)-ethyl]-Δ^4,9(11) -estradien-17-ol-3-one] | 50 | – | -70 | -53 | -56 | -60 |
| CSCC[C@]12CCC(=O)CC1CC[C@@H]1C2=CC[C@]2(C)C(=O)CC[C@@H]12 (stereo partly drawn) [Example 31, 10β-[2-(methylthio)-ethyl]-Δ^9(11) -estren-3,17-dione] | 5.5 | – | -69 | -56 | – | – |
| C[C@]12CC=C3[C@@H](CCC4=CC(=O)CC[C@@]43CCSCF)[C@@H]1CCC2=O [Example 22] | 500 | – | – | – | – | – |
